Source: patent US6534516B1, “Androgen receptor modulator compounds and methods” (Ligand Pharmaceuticals Incorporated, priority 1996, dated 2003)
Read-outs that look alike come from different tables or passages of the source.

Tests used:
[1] = system: immature castrated male rat; assay: Immature castrated male rat model with testosterone silastic implant, ventral prostate and seminal vesicle weights; type: in vivo; conditions: for ED50: Rattus norvegicus, po, 72 h; for Seminal Vesicles weight / Ventral Prostate weight: 3 days
Description: The activity of selected compounds of the present invention as AR antagonists was *~ investigated in an immature castrated male rat model. A recognized test of the antiandrogen activity of a given compound, as described in L. G. Hershberger et al., 83 Proc. Soc. Exptl. […] Similar approaches have been used in the rat and in hamsters. […] Dermatol.
The basis of this assay is the fact that male sexual accessory organs, such as the prostate and seminal vesicles, play an important role in reproductive function. […] See F. Labrie et al., 16 Clin. Invest. […] However, this is not a major pathway since, in both animals and humans, castration without concomitant adrenalectomy leads to almost complete involution of the prostate and seminal vesicles. […] See M. C. […] Since the male sex organs are the tissues most responsive to modulation by androgen activity, this model is used to determine the androgen-dependent growth of the sex accessory organs in immature castrated rats.
Immature male rats (50-60 g, 21 day-old Sprague-Dawley, Harlan) were castrated under metofane anesthesia. […] As a negative control, a group of castrated animals received empty 10 mm silastic implants. Animal groups were dosed for 3 days by oral gavage as follows:
At the end of the 3-day treatment, the animals were sacrificed, and the ventral prostates and seminal vesicles were collected and weighed. Organ weight data were normalized to body weight of each animal and expressed as mg/100 g body weight. Results were analyzed by analysis of variance followed by the Dunnett's test. Data were transformed to comply with the normality and variance homogeneity criteria required to utilize the analysis of variance and Dunnett's test. The following data transformations were used for the ventral prostate and seminal vesicle: square root and power 0.7 respectively. Thereafter, the data were fitted to a four-parameter logistic equation and potencies derived from the fitted estimates. The same data transformations were used for the equation-fitting phase of the data analysis.
The gain and loss of sexual organ weights reflect the changes of cell number (DNA content) and cell mass (protein content), depending upon the serum androgen concentrations. […] Therefore, measurement of organ wet weights is sufficient to indicate the bioactivity of androgens and androgen antagonists.

[2] = target: T1, PR (Homo sapiens, UniProt P06401); assay: cell-based
T1 sequence (P06401 1-933): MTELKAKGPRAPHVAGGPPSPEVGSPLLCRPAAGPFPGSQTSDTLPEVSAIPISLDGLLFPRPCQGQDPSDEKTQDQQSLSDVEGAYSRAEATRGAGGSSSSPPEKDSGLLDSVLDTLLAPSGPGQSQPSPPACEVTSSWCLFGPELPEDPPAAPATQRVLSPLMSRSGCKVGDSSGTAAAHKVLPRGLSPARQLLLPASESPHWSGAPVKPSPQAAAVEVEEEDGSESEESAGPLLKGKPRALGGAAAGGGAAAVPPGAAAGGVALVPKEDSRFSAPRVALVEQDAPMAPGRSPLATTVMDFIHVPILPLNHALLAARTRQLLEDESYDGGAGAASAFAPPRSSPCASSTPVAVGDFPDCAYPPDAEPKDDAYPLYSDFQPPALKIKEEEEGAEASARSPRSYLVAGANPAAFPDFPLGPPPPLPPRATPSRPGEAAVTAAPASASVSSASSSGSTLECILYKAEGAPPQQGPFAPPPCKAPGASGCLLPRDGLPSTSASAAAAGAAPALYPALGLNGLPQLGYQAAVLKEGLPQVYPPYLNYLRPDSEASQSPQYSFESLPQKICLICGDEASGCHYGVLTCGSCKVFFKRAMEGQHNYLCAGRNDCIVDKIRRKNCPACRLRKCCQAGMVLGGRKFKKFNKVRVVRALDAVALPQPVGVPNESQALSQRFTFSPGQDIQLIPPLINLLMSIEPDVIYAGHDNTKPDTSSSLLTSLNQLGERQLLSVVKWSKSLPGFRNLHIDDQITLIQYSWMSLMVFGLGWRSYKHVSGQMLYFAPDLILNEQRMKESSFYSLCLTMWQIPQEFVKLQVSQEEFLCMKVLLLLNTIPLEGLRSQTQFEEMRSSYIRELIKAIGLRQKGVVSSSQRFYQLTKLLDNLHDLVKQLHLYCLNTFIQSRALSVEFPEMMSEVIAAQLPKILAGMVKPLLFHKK

CC1(C)CCc2cc3c(C(F)(F)F)c(F)c(=O)[nH]c3cc2N1 [Compound 105, 7-Fluoro-1,2,3,4-tetrahydro-2,2-dimethyl-6-trifluoromethyl-8-pyridono[5,6-g]quinoline]
suppression of seminal vesicle weight relative to castrate levels (in words) ([1]; 30 mg/kg): complete suppression to castrate levels
suppression of ventral prostate weight relative to castrate levels (in words) ([1]; 30 mg/kg): suppresses ventral prostate weight to castrate levels
ED50 ([1]; read-out: Potency (ED50) Weighted Average ± SE, Seminal Vesicle Weight): 7.5 ± 1.3 mg/kg
ED50 ([1]; read-out: Potency (ED50) Weighted Average ± SE, Ventral Prostate Weight): 3.1 ± 0.7 mg/kg
Seminal Vesicles weight ([1]; T implant + 0.1 mg/kg oral): 28.1 ± 3.6 (5) mg/100 g body weight
Ventral Prostate weight ([1]; T implant + 0.1 mg/kg oral): 74.8 ± 5.4 (5) mg/100 g body weight
Seminal Vesicles weight ([1]; T implant + 1 mg/kg oral): 27.4 ± 1.7 (5) mg/100 g body weight
Ventral Prostate weight ([1]; T implant + 1 mg/kg oral): 63.6 ± 6.6 (5) mg/100 g body weight
Seminal Vesicles weight ([1]; T implant + 3 mg/kg oral): 24.9 ± 0.9 (5) mg/100 g body weight
Ventral Prostate weight ([1]; T implant + 3 mg/kg oral): 48.4 ± 6.6 (5) mg/100 g body weight
Seminal Vesicles weight ([1]; T implant + 10 mg/kg oral): 15.2 ± 0.3 (5) mg/100 g body weight
Ventral Prostate weight ([1]; T implant + 10 mg/kg oral): 40.0 ± 1.3 (5) mg/100 g body weight
Seminal Vesicles weight ([1]; T implant + 30 mg/kg oral): 7.1 ± 1.4 (5) mg/100 g body weight
Ventral Prostate weight ([1]; T implant + 30 mg/kg oral): 24.6 ± 2.0 (5) mg/100 g body weight
Seminal Vesicles weight ([1]; T implant + 100 mg/kg oral): 7.6 ± 1.4 (5) mg/100 g body weight
Ventral Prostate weight ([1]; T implant + 100 mg/kg oral): 23.6 ± 2.2 (5) mg/100 g body weight
IC50 [2]: 160 nM
